Patent publication US9962453B2, “Immunogenic compound” (ALTIMMUNE UK LIMITED, priority 2013, dated 2018)
Structures can show the parent of a compound that is named as a salt. No end group written: not given here. PEG‑FIM = not defined here

How the values were obtained:
[1] = biological target: T1, human TLR8 (Homo sapiens, UniProt Q9NR97); assay: Human TLR8 HEK-Blue reporter gene assay (NF-kappaB activation, SEAP); assay type: cell-based; conditions: in comparison with R848
T1 construct: host or cells: HEK-Blue-hTLR8 (HEK293)
T1 sequence (Q9NR97 27-1041): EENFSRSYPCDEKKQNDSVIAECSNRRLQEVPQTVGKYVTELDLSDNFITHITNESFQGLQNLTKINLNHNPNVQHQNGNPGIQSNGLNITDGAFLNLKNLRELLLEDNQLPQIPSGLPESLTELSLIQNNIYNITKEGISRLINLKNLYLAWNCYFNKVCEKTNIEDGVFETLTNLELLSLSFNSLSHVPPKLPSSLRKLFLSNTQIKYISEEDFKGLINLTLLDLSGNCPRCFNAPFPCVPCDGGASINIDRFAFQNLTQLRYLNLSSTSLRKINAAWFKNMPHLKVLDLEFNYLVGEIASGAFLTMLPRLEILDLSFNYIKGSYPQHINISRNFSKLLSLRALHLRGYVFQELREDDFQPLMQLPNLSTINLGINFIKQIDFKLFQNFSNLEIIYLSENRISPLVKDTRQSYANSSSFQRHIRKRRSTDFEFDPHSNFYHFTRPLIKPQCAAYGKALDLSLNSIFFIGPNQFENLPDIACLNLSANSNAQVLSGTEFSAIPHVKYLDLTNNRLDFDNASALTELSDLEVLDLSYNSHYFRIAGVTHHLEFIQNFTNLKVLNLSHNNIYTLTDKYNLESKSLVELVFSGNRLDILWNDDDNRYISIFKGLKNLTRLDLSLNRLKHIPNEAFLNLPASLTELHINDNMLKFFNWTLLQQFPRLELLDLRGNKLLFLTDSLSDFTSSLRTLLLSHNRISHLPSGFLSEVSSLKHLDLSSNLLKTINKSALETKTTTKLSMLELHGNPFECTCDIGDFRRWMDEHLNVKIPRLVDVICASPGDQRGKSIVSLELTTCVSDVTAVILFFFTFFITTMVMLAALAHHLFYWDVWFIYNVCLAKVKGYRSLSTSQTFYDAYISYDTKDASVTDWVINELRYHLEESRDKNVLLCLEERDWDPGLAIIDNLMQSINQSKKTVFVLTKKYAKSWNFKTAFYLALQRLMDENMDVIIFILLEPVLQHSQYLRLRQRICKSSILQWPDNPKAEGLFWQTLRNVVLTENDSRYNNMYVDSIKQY
Method: (§1) The activity of different TLR-7 or TLR-8 agonist were tested using human TLR-specific HEK-Blue™ reporter gene assays (Invivogen, France). HEK-Blue™-hTLR7 cells and HEK-Blue™-hTLR8 cells were obtained by co-transfection of the human TLR7 gene or human TLR8 genes and an inducible SEAP (secreted embryonic alkaline phosphatase) reporter gene into HEK293 cells. The SEAP gene is placed under the control of the IFN-β minimal promoter fused to five NF-kappaB and AP-1-binding sites. Stimulation with a TLR ligand activates NF-kappaB and AP-1 which induce the production of SEAP. Cells were maintained in HEK-Blue™ selection medium containing Blasticidin, Zeocin and Normocin. HEK-Blue™ cells were incubated at a density of 10^5 cells/mL in a volume of 200 ul in 96 well plates. In the presence of the HEK-Blue™ detection media, the secretion of SEAP (proportional to the to the NF-kappaB induction) was quantified at […].

[2] = biological target: T2, human TLR7 (Homo sapiens, UniProt Q9NYK1); assay: Human TLR7 HEK-Blue reporter gene assay (NF-kappaB activation, SEAP); assay type: cell-based; conditions: in comparison with R848
T2 construct: host or cells: HEK-Blue-hTLR7 (HEK293)
T2 sequence (Q9NYK1 27-1049): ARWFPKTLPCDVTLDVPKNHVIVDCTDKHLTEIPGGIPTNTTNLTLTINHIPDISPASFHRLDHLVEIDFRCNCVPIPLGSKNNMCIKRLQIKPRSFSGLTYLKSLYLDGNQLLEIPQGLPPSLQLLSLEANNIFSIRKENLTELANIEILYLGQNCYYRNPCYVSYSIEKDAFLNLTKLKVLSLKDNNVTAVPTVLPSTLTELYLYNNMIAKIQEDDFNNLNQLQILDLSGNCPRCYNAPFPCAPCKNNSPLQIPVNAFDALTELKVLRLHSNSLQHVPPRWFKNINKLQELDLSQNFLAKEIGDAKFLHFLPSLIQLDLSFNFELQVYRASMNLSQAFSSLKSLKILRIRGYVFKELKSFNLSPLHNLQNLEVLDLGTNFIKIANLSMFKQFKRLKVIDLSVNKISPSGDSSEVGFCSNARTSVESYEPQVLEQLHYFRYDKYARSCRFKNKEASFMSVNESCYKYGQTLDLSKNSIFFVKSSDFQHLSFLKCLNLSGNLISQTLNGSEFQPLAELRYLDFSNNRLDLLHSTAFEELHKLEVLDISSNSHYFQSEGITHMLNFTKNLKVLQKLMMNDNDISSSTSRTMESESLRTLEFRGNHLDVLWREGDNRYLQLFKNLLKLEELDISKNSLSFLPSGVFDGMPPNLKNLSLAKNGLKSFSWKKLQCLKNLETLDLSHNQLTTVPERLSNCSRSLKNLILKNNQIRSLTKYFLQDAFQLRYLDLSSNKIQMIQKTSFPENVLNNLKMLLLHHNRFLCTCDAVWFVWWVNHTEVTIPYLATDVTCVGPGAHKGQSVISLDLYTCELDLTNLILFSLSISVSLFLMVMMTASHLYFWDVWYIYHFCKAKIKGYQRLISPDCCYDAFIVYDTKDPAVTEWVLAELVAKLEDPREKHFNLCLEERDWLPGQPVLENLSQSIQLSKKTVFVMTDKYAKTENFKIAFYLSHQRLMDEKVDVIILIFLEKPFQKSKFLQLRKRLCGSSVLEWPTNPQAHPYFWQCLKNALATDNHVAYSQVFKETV
Method: as §1

[3] = tested on: T cell immune response to FP-02.2 vaccine peptides; assay type: in vivo, BALB/c mice; conditions: conclusions of Example 2

Molecule | NF-kappaB activation in HEK-293 cells expressing TLR-8 [1] | NF-kappaB activation in HEK-293 cells expressing TLR-7 [2] | adjuvanticity, conjugates versus free R848 [3]
CCOCc1nc2c(N)nc3ccccc3c2n1CC(C)(C)O [Peptide R848, [4-Amino-2-(ethoxymethyl)-1H-imidazo[4,5-c]quinolin-1-yl]-2-methyl-2-propanol, HCl, reference compound] | highly active | highly active | little to no-adjuvanticity
RLK(PEG-FIM)-NH2 (Arg-Leu-Lys(PEG‑FIM)-NH2; reading uncertain; also: printed as RLK(PEG-FIM)-NH2) [RLK-PEG-FIM-01] | also active in the TLR-7 and TLR-8 cell line but to a much lesser extent compared to R848 | also active in the TLR-7 and TLR-8 cell line but to a much lesser extent compared to R848 | 
